Reference: US11180504B2 (ORCHID PHARMA LTD., priority 2016, dated 2021)
Values after ≈ are worked out from the molar mass of the structure shown.

Assays:
[1] = test system: carbapenemase producing K. pneumoniae; assay: MIC by broth micro-dilution (CLSI), carbapenemase producing K. pneumoniae; assay type: cell-based, Klebsiella pneumoniae; settings: Klebsiella pneumoniae, ATCCBAA1705, KPC-2 K. pneumoniae ATCC BAA-1705; read-out: MIC
[2] = test system: carbapenem sensitive Pseudomonas aeruginosa; assay: MIC by broth micro-dilution (CLSI), carbapenem sensitive P. aeruginosa; assay type: cell-based; settings: Pseudomonas aeruginosa, ATCC27853, Meropenem susceptible P. aeruginosa ATCC27853; read-out: MIC
[3] = test system: carbapenem sensitive Escherichia coli; assay: MIC by broth micro-dilution (CLSI), carbapenem sensitive E. coli; assay type: cell-based; settings: Escherichia coli, ATCC25922, ESBL −ve E. coli ATCC25922; read-out: MIC
[4] = test system: methicillin-sensitive Staphylococcus aureus; assay: MIC by broth micro-dilution (CLSI), methicillin-sensitive S. aureus; assay type: cell-based; settings: Staphylococcus aureus, ATCC 29213 / MSSA, MSSA S. aureus ATCC29213; read-out: MIC

Structure (SMILES) | MIC [1] [µg/mL] | MIC [2] [µg/mL] | MIC [3] [µg/mL] | MIC [4] [µg/mL]
CNCC(=O)N[C@H](C)[C@H]1C(=O)N2C(C(=O)O)=C(S[C@@H]3CN[C@H](CNS(=O)(=O)N4CC[C@H](N)C4)C3)[C@H](C)[C@H]12 [Example 253] | 16 (≈ 28.6 µM) | 16 (≈ 28.6 µM) | 16 (≈ 28.6 µM) | 32 (≈ 57.2 µM)
CNCC(=O)N[C@H](C)[C@H]1C(=O)N2C(C(=O)O)=C(S[C@@H]3CN[C@H](CNC(=O)c4cc(=O)c(O)cn4C)C3)[C@H](C)[C@H]12 [Example 254] | 16 (≈ 28.4 µM) | 128 (≈ 227 µM) | 8 (≈ 14.2 µM) | 64 (≈ 114 µM)
CNCC(=O)N[C@H](C)[C@H]1C(=O)N2C(C(=O)O)=C(SCCn3cc(O)c(=O)cc3CN)[C@H](C)[C@H]12 [Example 257] | 16 (≈ 33.4 µM) | 128 (≈ 267 µM) | 4 (≈ 8.34 µM) | > 128
C[C@@H](NC(=O)C(F)F)[C@H]1C(=O)N2C(C(=O)O)=C(S[C@@H]3CN[C@H](CNC(=O)[C@H]4CC[C@@H](N)C4)C3)[C@H](C)[C@H]12 [Example 258] | 16 (≈ 30.2 µM) | 128 (≈ 242 µM) | 4 (≈ 7.55 µM) | 1 (≈ 1.89 µM)
C[C@@H](NC(=O)C(F)F)[C@H]1C(=O)N2C(C(=O)O)=C(S[C@@H]3CN[C@H](CNC(=O)[C@@H]4C[C@H](N)CN4)C3)[C@H](C)[C@H]12 [Example 259] | 16 (≈ 30.2 µM) | > 128 | 4 (≈ 7.54 µM) | 2 (≈ 3.77 µM)
C[C@@H](NC(=O)C(F)F)[C@H]1C(=O)N2C(C(=O)O)=C(S[C@@H]3CN[C@H](CNC(=O)[C@@H]4C[C@@H](N)CN4)C3)[C@H](C)[C@H]12 [Example 261] | 16 (≈ 30.2 µM) | 64 (≈ 121 µM) | 2 (≈ 3.77 µM) | 2 (≈ 3.77 µM)
CNCC(=O)N[C@H](C)[C@H]1C(=O)N2C(C(=O)O)=C(S[C@@H]3CN[C@H](CNC(=O)[C@@H]4CCC(N)C4)C3)[C@H](C)[C@H]12 (stereo partly shown) [Example 262] | 16 (≈ 30.6 µM) | 64 (≈ 122 µM) | 4 (≈ 7.65 µM) | 32 (≈ 61.2 µM)
CC(=O)N1C[C@@H](N)C[C@H]1CSC1=C(C(=O)O)N2C(=O)[C@H]([C@@H](C)NC(=O)C(F)F)[C@H]2[C@H]1C [Example 265] | 8 (≈ 17.4 µM) | > 128 | 2 (≈ 4.34 µM) | 2 (≈ 4.34 µM)

Further lines, results first:

MIC [1] [µg/mL] | MIC [2] [µg/mL] | MIC [3] [µg/mL] | MIC [4] [µg/mL] | Structure (SMILES)
4 (≈ 8.69 µM) | > 128 | 1 (≈ 2.17 µM) | 1 (≈ 2.17 µM) | C[C@@H](NC(=O)C(F)F)[C@H]1C(=O)N2C(C(=O)O)=C(S[C@@H]3CN[C@@H](C(=O)N(C)C)C3)[C@H](C)[C@H]12 [Example 248]
0.5 (≈ 0.939 µM) | 32 (≈ 60.1 µM) | 0.25 (≈ 0.469 µM) | 0.5 (≈ 0.939 µM) | C[C@@H](NC(=O)C(F)F)[C@H]1C(=O)N2C(C(=O)O)=C(S[C@@H]3CN[C@H](C(=O)C4C[C@@H](N)C[C@H]4CF)C3)[C@H](C)[C@H]12 (stereo partly shown) [Example 251]
4 (≈ 7.15 µM) | 16 (≈ 28.6 µM) | 2 (≈ 3.57 µM) | 16 (≈ 28.6 µM) | CNCC(=O)N[C@H](C)[C@H]1C(=O)N2C(C(=O)O)=C(S[C@@H]3CN[C@H](CNS(=O)(=O)N4CCNCC4)C3)[C@H](C)[C@H]12 [Example 252]
8 (≈ 15.3 µM) | 32 (≈ 61.2 µM) | 4 (≈ 7.65 µM) | 8 (≈ 15.3 µM) | CNCC(=O)N[C@H](C)[C@H]1C(=O)N2C(C(=O)O)=C(S[C@@H]3CN[C@H](CNC(=O)[C@H]4CC[C@@H](N)C4)C3)[C@H](C)[C@H]12 [Example 255]
2 (≈ 4.41 µM) | 32 (≈ 70.5 µM) | 1 (≈ 2.2 µM) | 4 (≈ 8.82 µM) | CNCC(=O)N[C@H](C)[C@H]1C(=O)N2C(C(=O)O)=C(SC3CN(C4=NCCS4)C3)[C@H](C)[C@H]12 [Example 256]
8 (≈ 15.1 µM) | 32 (≈ 60.4 µM) | 4 (≈ 7.55 µM) | 1 (≈ 1.89 µM) | C[C@@H](NC(=O)C(F)F)[C@H]1C(=O)N2C(C(=O)O)=C(S[C@@H]3CN[C@H](CNC(=O)[C@@H]4CC[C@H](N)C4)C3)[C@H](C)[C@H]12 [Example 260]
2 (≈ 4.34 µM) | 128 (≈ 278 µM) | 0.25 (≈ 0.543 µM) | 0.25 (≈ 0.543 µM) | C[C@@H](NC(=O)C(F)F)[C@H]1C(=O)N2C(C(=O)O)=C(SC3CN(C4=NCCS4)C3)[C@H](C)[C@H]12 [Example 263]
4 (≈ 7.65 µM) | 8 (≈ 15.3 µM) | 2 (≈ 3.83 µM) | 16 (≈ 30.6 µM) | CNCC(=O)N[C@H](C)[C@H]1C(=O)N2C(C(=O)O)=C(S[C@@H]3CN[C@H](C(=O)N4CC[C@H](N)C[C@@H]4C)C3)[C@H](C)[C@H]12 [Example 264]
